Results published in PubChem BioAssay (NCI).
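48-hour exposure; five concentrations; linearly interpolated endpoints. Abbreviation: GI50, concentration required for 50% inhibition of growth. TGI is the concentration that stops growth completely.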

Legend:
Experiment in all cases: DTP human tumour cell line panel, 48 h; in the data active = GI50 below about 0.43 µM; inactive = the rest
786-0 renal = test system: 786-0 renal
PC-3 prostate = test system: PC-3 prostate
MDA-MB-231 breast = test system: MDA-MB-231 breast
RXF 393 renal = test system: RXF 393 renal
SK-OV-3 ovarian = test system: SK-OV-3 ovarian
HCT-116 colon = test system: HCT-116 colon
SK-MEL-28 melanoma = test system: SK-MEL-28 melanoma
KM12 colon = test system: KM12 colon
SN12C renal = test system: SN12C renal
OVCAR-3 ovarian = test system: OVCAR-3 ovarian
M14 melanoma = test system: M14 melanoma
U251 CNS = test system: U251 CNS
TK-10 renal = test system: TK-10 renal
MDA-MB-435 = test system: MDA-MB-435
SNB-75 CNS = test system: SNB-75 CNS
K-562 leukemia = test system: K-562 leukemia
SW-620 colon = test system: SW-620 colon
A498 renal = test system: A498 renal
CAKI-1 renal = test system: CAKI-1 renal
UO-31 renal = test system: UO-31 renal
SNB-19 CNS = test system: SNB-19 CNS
ACHN renal = test system: ACHN renal
UACC-62 melanoma = test system: UACC-62 melanoma
HL-60(TB) leukemia = test system: HL-60(TB) leukemia
IGROV1 ovarian = test system: IGROV1 ovarian
UACC-257 melanoma = test system: UACC-257 melanoma
COLO 205 colon = test system: COLO 205 colon
HCC-2998 colon = test system: HCC-2998 colon
SF-295 CNS = test system: SF-295 CNS
MALME-3M melanoma = test system: MALME-3M melanoma
EKVX NSCLC = test system: EKVX NSCLC
MDA-MB-468 breast = test system: MDA-MB-468 breast
CCRF-CEM leukemia = test system: CCRF-CEM leukemia
SF-539 CNS = test system: SF-539 CNS
SK-MEL-2 melanoma = test system: SK-MEL-2 melanoma
DU-145 prostate = test system: DU-145 prostate
NCI-H226 lung = test system: NCI-H226 lung
OVCAR-5 ovarian = test system: OVCAR-5 ovarian
RPMI-8226 leukemia = test system: RPMI-8226 leukemia
SF-268 CNS = test system: SF-268 CNS
A549 NSCLC = test system: A549 NSCLC
OVCAR-4 ovarian = test system: OVCAR-4 ovarian
SR leukemia = test system: SR leukemia
NCI-H23 lung = test system: NCI-H23 lung
T-47D breast = test system: T-47D breast
LOX IMVI melanoma = test system: LOX IMVI melanoma
OVCAR-8 ovarian = test system: OVCAR-8 ovarian
HOP-92 NSCLC = test system: HOP-92 NSCLC
MCF7 breast = test system: MCF7 breast
MOLT-4 leukemia = test system: MOLT-4 leukemia
HS 578T breast = test system: HS 578T breast
HOP-62 NSCLC = test system: HOP-62 NSCLC
HCT-15 colon = test system: HCT-15 colon
SK-MEL-5 melanoma = test system: SK-MEL-5 melanoma

O=C1Nc2cc(Cl)ccc2/C1=C/c1cccc(OCc2ccc(Br)cc2F)c1
9.41 µM: TGI (MOLT-4 leukemia)
4.34 µM: TGI (SF-539 CNS)
inactive: GI50 (786-0 renal) 3.79 µM | GI50 (PC-3 prostate) 3.89 µM | GI50 (MDA-MB-231 breast) 2.63 µM | GI50 (RXF 393 renal) 4.47 µM | GI50 (SK-OV-3 ovarian) 14.6 µM | GI50 (HCT-116 colon) 3.1 µM | GI50 (SK-MEL-28 melanoma) 4.47 µM | GI50 (KM12 colon) 3.65 µM | GI50 (SN12C renal) 4.11 µM | GI50 (OVCAR-3 ovarian) 2.53 µM | GI50 (M14 melanoma) 2.17 µM | GI50 (U251 CNS) 3.79 µM | GI50 (TK-10 renal) 14.3 µM | GI50 (MDA-MB-435) 1.82 µM | GI50 (SNB-75 CNS) 1.83 µM | GI50 (K-562 leukemia) 2.67 µM | GI50 (SW-620 colon) 2.89 µM | GI50 (A498 renal) 7.92 µM | GI50 (CAKI-1 renal) 2.54 µM | GI50 (UO-31 renal) 2.05 µM | GI50 (SNB-19 CNS) 3.9 µM | GI50 (ACHN renal) 3.94 µM | GI50 (UACC-62 melanoma) 2.49 µM | GI50 (HL-60(TB) leukemia) 1.85 µM | GI50 (IGROV1 ovarian) 2.71 µM | GI50 (UACC-257 melanoma) 8.5 µM | GI50 (COLO 205 colon) 3.42 µM | GI50 (HCC-2998 colon) 3.71 µM | GI50 (SF-295 CNS) 3.16 µM | GI50 (MALME-3M melanoma) 4.15 µM | GI50 (EKVX NSCLC) 3.23 µM | GI50 (MDA-MB-468 breast) 2.43 µM | GI50 (CCRF-CEM leukemia) 2.91 µM | GI50 (SF-539 CNS) 1.99 µM | GI50 (SK-MEL-2 melanoma) 2.16 µM | GI50 (DU-145 prostate) 5.97 µM | GI50 (NCI-H226 lung) 3.09 µM | GI50 (OVCAR-5 ovarian) 8.48 µM | GI50 (RPMI-8226 leukemia) 2.35 µM | GI50 (SF-268 CNS) 3.33 µM | GI50 (A549 NSCLC) 4.66 µM | GI50 (OVCAR-4 ovarian) 3.55 µM | GI50 (SR leukemia) 2.15 µM | GI50 (NCI-H23 lung) 3.88 µM | GI50 (T-47D breast) 3.67 µM | GI50 (LOX IMVI melanoma) 2.49 µM | GI50 (OVCAR-8 ovarian) 4.32 µM | GI50 (HOP-92 NSCLC) 2.33 µM | GI50 (MCF7 breast) 0.642 µM | GI50 (MOLT-4 leukemia) 2.92 µM | GI50 (HS 578T breast) 2.17 µM | GI50 (HOP-62 NSCLC) 4.02 µM | GI50 (HCT-15 colon) 2.67 µM | GI50 (SK-MEL-5 melanoma) 3.03 µM
13.9 µM: TGI (CAKI-1 renal)
20.9 µM: TGI (MALME-3M melanoma)
12.4 µM: TGI (HOP-92 NSCLC)
12.5 µM: TGI (MDA-MB-231 breast)
10.9 µM: TGI (CCRF-CEM leukemia) | TGI (SK-MEL-5 melanoma)
5.82 µM: TGI (HS 578T breast)
12.6 µM: TGI (RPMI-8226 leukemia)
97.7 µM: TGI (IGROV1 ovarian)
8.88 µM: TGI (MDA-MB-468 breast)
7.82 µM: TGI (OVCAR-3 ovarian)
34.2 µM: TGI (HOP-62 NSCLC)
5.71 µM: TGI (M14 melanoma)
5.35 µM: TGI (SK-MEL-2 melanoma)
8.24 µM: TGI (LOX IMVI melanoma)
4.53 µM: TGI (HL-60(TB) leukemia)
12.3 µM: TGI (HCT-15 colon)
3.41 µM: TGI (MDA-MB-435)
27.8 µM: TGI (MCF7 breast)
8.56 µM: TGI (K-562 leukemia)
50.4 µM: TGI (RXF 393 renal)
14.9 µM: TGI (SF-295 CNS)
5.07 µM: TGI (SR leukemia)
5.11 µM: TGI (SNB-75 CNS)
41 µM: TGI (KM12 colon)
47.2 µM: TGI (OVCAR-4 ovarian)
57.2 µM: TGI (A498 renal)
24.1 µM: TGI (SK-MEL-28 melanoma)
> 100 µM: TGI (786-0 renal) | TGI (PC-3 prostate) | TGI (SK-OV-3 ovarian) | TGI (HCT-116 colon) | TGI (SN12C renal) | TGI (U251 CNS) | TGI (TK-10 renal) | TGI (SW-620 colon) | TGI (UO-31 renal) | TGI (SNB-19 CNS) | TGI (ACHN renal) | TGI (UACC-257 melanoma) | TGI (COLO 205 colon) | TGI (HCC-2998 colon) | TGI (EKVX NSCLC) | TGI (DU-145 prostate) | TGI (NCI-H226 lung) | TGI (OVCAR-5 ovarian) | TGI (SF-268 CNS) | TGI (A549 NSCLC) | TGI (NCI-H23 lung) | TGI (T-47D breast) | TGI (OVCAR-8 ovarian)
8.8 µM: TGI (UACC-62 melanoma)
